What was measured:
AMPK (AMPKα1β1γ1) [1] = molecular target: T1, AMPK (AMPKα1β1γ1) (Rattus norvegicus, UniProt P80385); assay: STD-NMR and NMR competition titration against MP; format: binding
T1 construct: gene Prkag1; recombinant full-length AMPKα1β1γ1 heterotrimer, 6×His tag at the N-terminal end of the α-subunit; with AMPK α1 (Prkaa1) and β1 (Prkab1) subunits

AMPK (AMPKα1β1γ1) [2] = molecular target: T1, AMPK (AMPKα1β1γ1); assay: MST (Kd […]); ITC (Kd […]); STD-NMR; CD; format: binding

T1 sequence (P80385 whole entry): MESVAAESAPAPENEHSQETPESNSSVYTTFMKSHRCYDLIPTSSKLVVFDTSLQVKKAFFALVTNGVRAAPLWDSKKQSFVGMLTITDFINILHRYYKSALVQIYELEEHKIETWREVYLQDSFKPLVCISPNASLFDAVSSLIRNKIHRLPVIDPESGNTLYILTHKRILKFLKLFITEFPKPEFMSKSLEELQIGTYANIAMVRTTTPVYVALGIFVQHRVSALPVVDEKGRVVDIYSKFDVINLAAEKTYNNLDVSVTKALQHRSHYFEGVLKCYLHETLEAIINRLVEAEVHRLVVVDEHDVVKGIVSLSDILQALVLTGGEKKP
T1 sequence (P54645 whole entry partner): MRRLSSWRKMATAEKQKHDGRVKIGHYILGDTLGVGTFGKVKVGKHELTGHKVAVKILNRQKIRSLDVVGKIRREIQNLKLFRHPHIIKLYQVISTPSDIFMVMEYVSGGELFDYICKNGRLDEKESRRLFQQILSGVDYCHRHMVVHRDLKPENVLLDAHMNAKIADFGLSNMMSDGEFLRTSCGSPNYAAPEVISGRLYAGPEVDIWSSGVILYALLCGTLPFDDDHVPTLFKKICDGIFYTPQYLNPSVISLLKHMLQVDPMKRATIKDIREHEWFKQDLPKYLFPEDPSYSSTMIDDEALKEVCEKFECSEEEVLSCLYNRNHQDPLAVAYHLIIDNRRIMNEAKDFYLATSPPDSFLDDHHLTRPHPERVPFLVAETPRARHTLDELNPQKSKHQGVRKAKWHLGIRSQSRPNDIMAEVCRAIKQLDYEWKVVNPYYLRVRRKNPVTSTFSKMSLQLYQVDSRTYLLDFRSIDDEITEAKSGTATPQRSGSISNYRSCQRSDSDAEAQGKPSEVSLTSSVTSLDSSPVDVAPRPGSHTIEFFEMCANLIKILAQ
T1 sequence (P80386 2-270 partner): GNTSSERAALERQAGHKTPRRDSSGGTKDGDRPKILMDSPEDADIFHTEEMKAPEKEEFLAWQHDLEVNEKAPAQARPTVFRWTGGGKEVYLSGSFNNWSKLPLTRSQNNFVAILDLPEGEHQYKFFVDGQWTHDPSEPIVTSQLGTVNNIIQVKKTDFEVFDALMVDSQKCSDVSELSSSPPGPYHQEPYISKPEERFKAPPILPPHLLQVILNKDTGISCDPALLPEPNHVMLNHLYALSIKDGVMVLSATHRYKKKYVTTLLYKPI

| SMILES | STD-NMR and NMR competition titration against MP (AMPK (AMPKα1β1γ1) [1]) | Kd (AMPK (AMPKα1β1γ1) [2]) [µM] |
| --- | --- | --- |
| Nc1ncnc2c1ncn2[C@@H]1O[C@H](COP(=O)(O)O)[C@@H](O)[C@H]1O [AMP, adenosine monophosphate] | adenosine monophosphate (AMP) and MP bind directly to AMPK |  |
| O=P(O)(O)OC[C@H]1O[C@@H](n2cnc3c(Nc4cccc(O)c4)ncnc32)[C@H](O)[C@@H]1O [MP, ((2R,3S,4R,5R)-3,4-dihydroxy-5-(6-((3-hydroxyphenyl)amino)-9H-purin-9-yl)tetrahydrofuran-2-yl) methyl dihydrogen phosphate] |  | 4.27 |

Reference: PMC10743971, “MP Allosterically Activates AMPK to Enhance ABCA1 Stability by Retarding the Calpain-Mediated Degradation Pathway” (International Journal of Molecular Sciences, 2023)
